Patent US20080182865A1, “HISTONE DEACETYLASE INHIBITORS SENSITIZE CANCER CELLS TO EPIDERMAL GROWTH FACTOR INHIBITORS” (priority 2005, published 2008)

Tests used:
[1] = tested on: E-cad; conditions: lung cancer cell lines; cited from earlier work
[2] = tested on: E-cad; experiment: E-cad expression after MS-275 in gefitinib-resistant NSCLC cell lines; assay type: cell-based, human; conditions: 24 hours after treatment with 4 or 10 μM
[3] = in vivo; cited from earlier work
[4] = tested on: A549 NSCLC cell line; experiment: Apoptosis and cell death (cell cycle analysis); assay type: cell-based, human; conditions: 10 μM
Experimental: (§1) The effect of gefitinib on inducing apoptosis and cell death in NSCLC cell lines sensitive and resistant to gefitinib was evaluated. […].

[5] = tested on: Calu3 NSCLC cell line; experiment: Apoptosis and cell death (cell cycle analysis); assay type: cell-based, human; conditions: 10 μM
Experimental: as §1

[6] = tested on: H322 NSCLC cell line; experiment: Apoptosis and cell death (cell cycle analysis); assay type: cell-based, human; conditions: 10 μM
Experimental: as §1

[7] = tested on: H3255 NSCLC cell line; experiment: Apoptosis and cell death (cell cycle analysis); assay type: cell-based, human; conditions: 10 μM
Experimental: as §1

[8] = tested on: H358 NSCLC cell line; experiment: Apoptosis and cell death (cell cycle analysis); assay type: cell-based, human; conditions: 10 μM
Experimental: as §1

[9] = tested on: H157 NSCLC cell line; experiment: Apoptosis and cell death (cell cycle analysis); assay type: cell-based, human; conditions: 10 μM
Experimental: (§2) The effect of gefitinib on inducing apoptosis and cell death in NSCLC cell lines sensitive and resistant to gefitinib was evaluated.

[10] = tested on: H460 NSCLC cell line; experiment: Apoptosis and cell death (cell cycle analysis); assay type: cell-based, human; conditions: 10 μM
Experimental: as §2

[11] = tested on: H520 NSCLC cell line; experiment: Apoptosis and cell death (cell cycle analysis); assay type: cell-based, human; conditions: 10 μM
Experimental: as §2

[12] = tested on: NSCLC patients; conditions: cited from earlier work; for response rate: single agent, phase I studies, chemotherapy resistant NSCLC patients
[13] = unselected gefitinib treated NSCLC patients

CC(/C=C/C(=O)NO)=C\[C@@H](C)C(=O)c1ccc(N(C)C)cc1 [TSA, trichostatin A]
effect on E-cad [1]: activation of E-cad

Nc1ccccc1NC(=O)c1ccc(CNC(=O)OCc2cccnc2)cc1 [MS-275]
upregulation of E-cad expression ([2]; H157): Eight to twelve
upregulation of E-cad expression ([2]; H460): Eight to twelve
upregulation of E-cad expression ([2]; H520): Eight to twelve
half-life [3]: 100 h
persistence of changes in histone acetylation following administration [3]: several weeks

COc1cc2ncnc(Nc3ccc(F)c(Cl)c3)c2cc1OCCCN1CCOCC1 [gefitinib]
apoptosis and cell death [4]: no apoptotic or necrotic effect
increase in apoptosis and cell death [5]: 2.3-3.4 fold
increase in apoptosis and cell death [6]: 2.3-3.4 fold
increase in apoptosis and cell death [7]: 35 fold
increase in apoptosis and cell death [8]: 2.3-3.4 fold
apoptosis and cell death [9]: no apoptotic or necrotic effect
apoptosis and cell death [10]: no apoptotic or necrotic effect
apoptosis and cell death [11]: no apoptotic or necrotic effect
response rate [12]: about 10%
objective response [12, 13]: up to 18%
symptomatic improvement [12, 13]: 40%

C#Cc1cccc(Nc2ncnc3cc(OCCOC)c(OCCOC)cc23)c1 [erlotinib]
survival ([12]; second or third line therapy, National Cancer Institute Canada trial): survival benefit
response rate [12]: about 10%
